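Where inhibition never reached the appropriate level, the endpoint shown equals the highest concentration tested. Otherwise, values were interpolated linearly from a five-concentration, 48-hour dose response in 96-well plates. Here, GI50 denotes the concentration required for 50% inhibition of growth. TGI marks complete inhibition of growth.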
How the values were obtained:
Experiment in all cases: DTP human tumour cell line panel, 48 h
786-0 renal = test system: 786-0 renal
A498 renal = test system: A498 renal
A549 NSCLC = test system: A549 NSCLC
ACHN renal = test system: ACHN renal
BT-549 breast = test system: BT-549 breast
CAKI-1 renal = test system: CAKI-1 renal
CCRF-CEM leukemia = test system: CCRF-CEM leukemia
COLO 205 colon = test system: COLO 205 colon
DU-145 prostate = test system: DU-145 prostate
EKVX NSCLC = test system: EKVX NSCLC
HCC-2998 colon = test system: HCC-2998 colon
HCT-116 colon = test system: HCT-116 colon
HCT-15 colon = test system: HCT-15 colon
HL-60(TB) leukemia = test system: HL-60(TB) leukemia
HOP-62 NSCLC = test system: HOP-62 NSCLC
HOP-92 NSCLC = test system: HOP-92 NSCLC
HS 578T breast = test system: HS 578T breast
HT29 colon = test system: HT29 colon
IGROV1 ovarian = test system: IGROV1 ovarian
K-562 leukemia = test system: K-562 leukemia
KM12 colon = test system: KM12 colon
LOX IMVI melanoma = test system: LOX IMVI melanoma
M14 melanoma = test system: M14 melanoma
MALME-3M melanoma = test system: MALME-3M melanoma
MCF7 breast = test system: MCF7 breast
MDA-MB-231 breast = test system: MDA-MB-231 breast
MDA-MB-435 = test system: MDA-MB-435
MOLT-4 leukemia = test system: MOLT-4 leukemia
NCI-H226 lung = test system: NCI-H226 lung
NCI-H23 lung = test system: NCI-H23 lung
NCI-H460 lung = test system: NCI-H460 lung
NCI-H522 lung = test system: NCI-H522 lung
NCI/ADR-RES ovarian = test system: NCI/ADR-RES ovarian
OVCAR-3 ovarian = test system: OVCAR-3 ovarian
OVCAR-4 ovarian = test system: OVCAR-4 ovarian
OVCAR-5 ovarian = test system: OVCAR-5 ovarian
OVCAR-8 ovarian = test system: OVCAR-8 ovarian
PC-3 prostate = test system: PC-3 prostate
RPMI-8226 leukemia = test system: RPMI-8226 leukemia
RXF 393 renal = test system: RXF 393 renal
SF-268 CNS = test system: SF-268 CNS
SF-295 CNS = test system: SF-295 CNS
SF-539 CNS = test system: SF-539 CNS
SK-MEL-2 melanoma = test system: SK-MEL-2 melanoma
SK-MEL-28 melanoma = test system: SK-MEL-28 melanoma
SK-MEL-5 melanoma = test system: SK-MEL-5 melanoma
SK-OV-3 ovarian = test system: SK-OV-3 ovarian
SN12C renal = test system: SN12C renal
SNB-19 CNS = test system: SNB-19 CNS
SNB-75 CNS = test system: SNB-75 CNS
SR leukemia = test system: SR leukemia
SW-620 colon = test system: SW-620 colon
T-47D breast = test system: T-47D breast
TK-10 renal = test system: TK-10 renal
U251 CNS = test system: U251 CNS
UACC-257 melanoma = test system: UACC-257 melanoma
UACC-62 melanoma = test system: UACC-62 melanoma
UO-31 renal = test system: UO-31 renal

O=[As]c1ccc(C(=O)c2ccc(Oc3ccccc3)cc2)cc1 (stereo not given)
GI50 (786-0 renal): 57.6 nM
TGI (786-0 renal): 166 nM
GI50 (A498 renal): 141 nM
TGI (A498 renal): 295 nM
GI50 (A549 NSCLC): 46.5 nM
TGI (A549 NSCLC): 172 nM
GI50 (ACHN renal): 35.8 nM
TGI (ACHN renal): 114 nM
GI50 (BT-549 breast): 135 nM
TGI (BT-549 breast): 278 nM
GI50 (CAKI-1 renal): 39.2 nM
TGI (CAKI-1 renal): 120 nM
GI50 (CCRF-CEM leukemia): 19.1 nM
TGI (CCRF-CEM leukemia): 155 nM
GI50 (COLO 205 colon): 49.4 nM
TGI (COLO 205 colon): 169 nM
GI50 (DU-145 prostate): 34.8 nM
TGI (DU-145 prostate): 123 nM
GI50 (EKVX NSCLC): 68.8 nM
TGI (EKVX NSCLC): 205 nM
GI50 (HCC-2998 colon): 72.7 nM
TGI (HCC-2998 colon): 213 nM
GI50 (HCT-116 colon): 41.5 nM
TGI (HCT-116 colon): 152 nM
GI50 (HCT-15 colon): 36.2 nM
TGI (HCT-15 colon): 150 nM
GI50 (HL-60(TB) leukemia): 119 nM
TGI (HL-60(TB) leukemia): 463 nM
GI50 (HOP-62 NSCLC): 35.6 nM
TGI (HOP-62 NSCLC): 105 nM
GI50 (HOP-92 NSCLC): 159 nM
TGI (HOP-92 NSCLC): 361 nM
GI50 (HS 578T breast): 129 nM
GI50 (HT29 colon): 37.9 nM
TGI (HT29 colon): 154 nM
GI50 (IGROV1 ovarian): 44 nM
TGI (IGROV1 ovarian): 219 nM
GI50 (K-562 leukemia): 18.8 nM
TGI (K-562 leukemia): 117 nM
GI50 (KM12 colon): 53.2 nM
TGI (KM12 colon): 177 nM
GI50 (LOX IMVI melanoma): 24.6 nM
TGI (LOX IMVI melanoma): 79.6 nM
GI50 (M14 melanoma): 69.5 nM
TGI (M14 melanoma): 202 nM
GI50 (MALME-3M melanoma): 68 nM
TGI (MALME-3M melanoma): 271 nM
GI50 (MCF7 breast): 18.1 nM
TGI (MCF7 breast): 90.3 nM
GI50 (MDA-MB-231 breast): 54.7 nM
TGI (MDA-MB-231 breast): 192 nM
GI50 (MDA-MB-435): 39.6 nM
TGI (MDA-MB-435): 176 nM
GI50 (MOLT-4 leukemia): 33.3 nM
TGI (MOLT-4 leukemia): 190 nM
GI50 (NCI-H226 lung): 106 nM
TGI (NCI-H226 lung): 226 nM
GI50 (NCI-H23 lung): 75.1 nM
TGI (NCI-H23 lung): 242 nM
GI50 (NCI-H460 lung): 43.9 nM
TGI (NCI-H460 lung): 183 nM
GI50 (NCI-H522 lung): 21.9 nM
TGI (NCI-H522 lung): 86.5 nM
GI50 (NCI/ADR-RES ovarian): 37.8 nM
TGI (NCI/ADR-RES ovarian): 143 nM
GI50 (OVCAR-3 ovarian): 24.3 nM
TGI (OVCAR-3 ovarian): 60.8 nM
GI50 (OVCAR-4 ovarian): 46.9 nM
TGI (OVCAR-4 ovarian): 171 nM
GI50 (OVCAR-5 ovarian): 129 nM
TGI (OVCAR-5 ovarian): 264 nM
GI50 (OVCAR-8 ovarian): 38.9 nM
TGI (OVCAR-8 ovarian): 146 nM
GI50 (PC-3 prostate): 34.9 nM
TGI (PC-3 prostate): 142 nM
GI50 (RPMI-8226 leukemia): 26.7 nM
TGI (RPMI-8226 leukemia): 105 nM
GI50 (RXF 393 renal): 40.4 nM
TGI (RXF 393 renal): 143 nM
GI50 (SF-268 CNS): 34.4 nM
TGI (SF-268 CNS): 129 nM
GI50 (SF-295 CNS): 150 nM
TGI (SF-295 CNS): 327 nM
GI50 (SF-539 CNS): 66 nM
TGI (SF-539 CNS): 218 nM
GI50 (SK-MEL-2 melanoma): 118 nM
TGI (SK-MEL-2 melanoma): 287 nM
GI50 (SK-MEL-28 melanoma): 41.6 nM
TGI (SK-MEL-28 melanoma): 153 nM
GI50 (SK-MEL-5 melanoma): 53.9 nM
TGI (SK-MEL-5 melanoma): 174 nM
GI50 (SK-OV-3 ovarian): 120 nM
TGI (SK-OV-3 ovarian): 249 nM
GI50 (SN12C renal): 40.7 nM
TGI (SN12C renal): 148 nM
GI50 (SNB-19 CNS): 65.1 nM
TGI (SNB-19 CNS): 187 nM
GI50 (SNB-75 CNS): 36.6 nM
TGI (SNB-75 CNS): 150 nM
GI50 (SR leukemia): < 16.8 nM
TGI (SR leukemia): 73.6 nM
GI50 (SW-620 colon): 24.8 nM
TGI (SW-620 colon): 111 nM
GI50 (T-47D breast): 31.6 nM
TGI (T-47D breast): 156 nM
GI50 (TK-10 renal): 63 nM
TGI (TK-10 renal): 190 nM
GI50 (U251 CNS): 18.1 nM
TGI (U251 CNS): 58.6 nM
GI50 (UACC-257 melanoma): 43.1 nM
TGI (UACC-257 melanoma): 171 nM
GI50 (UACC-62 melanoma): 59 nM
TGI (UACC-62 melanoma): 185 nM
GI50 (UO-31 renal): 69.5 nM
TGI (UO-31 renal): 208 nM
